Data from ChEMBL document CHEMBL5329192, “Synthesis, biological activities, and future perspectives of steroidal monocyclic pyridines” (RSC Med Chem, 2023).

Columns and labels:
[1] = test system: EC9706; assay: Antiproliferative activity against human EC9706 assessed as reduction in cell proliferation incubated for 72 hrs by MTT assay; type: functional, cell-based; details: EC9706, 72 h
[2] = test system: MGC-803; assay: Antiproliferative activity against human MGC-803 cells assessed as cell growth inhibition measured after 48 hrs by MTT assay; type: functional, cell-based; details: MGC-803, 48 h
[3] = test system: ECa-109 cell line; assay: Antiproliferative activity against human EC109 cells assessed as reduction in cell proliferation incubated for 72 hrs by MTT assay; type: functional, cell-based; details: ECa-109, 72 h
[4] = test system: ECa-109 cell line; assay: Cytotoxicity against human EC109 cells assessed as reduction in cell growth incubated for 48 hrs by MTT assay; type: functional, cell-based; details: ECa-109, 48 h
[5] = test system: MGC-803; assay: Cytotoxicity against human MGC-803 cells assessed as reduction in cell growth incubated for 48 hrs by MTT assay; type: functional, cell-based; details: MGC-803, 48 h
[6] = test system: EC9706; assay: Cytotoxicity against human EC9706 cells assessed as reduction in cell growth incubated for 48 hrs by MTT assay; type: functional, cell-based; details: EC9706, 48 h
[7] = Selectivity index, ratio of CC50 for cytotoxicity against human HEp-2 cells to EC50 for antiviral activity against Respiratory syncytial virus infected in human HEp-2 cells; type: toxicity, cell-based; details: read-out: Ratio CC50/EC50
[8] = test system: Respiratory syncytial virus; assay: Antiviral activity against Respiratory syncytial virus infected in human HEp-2 cells assessed as inhibition of virus-induced cytopathic effect measured after 6 days by CellTiter-Glo assay; type: functional, organism-based; details: HEp-2, 144 h
[9] = Cytotoxicity against human HEp-2 cells assessed as reduction in cell viability incubated for 48 hrs by MTT assay; type: toxicity, cell-based
[10] = Cytotoxicity against human RWPE-1 cells assessed as reduction in cell viability incubated for 48 hrs by SRB assay; type: toxicity, cell-based
[11] = test system: PC-3; assay: Cytotoxicity against human PC-3 cells assessed as reduction in cell viability incubated for 48 hrs by SRB assay; type: toxicity, cell-based; details: PC-3, 48 h
[12] = test system: HepG2; assay: Antiproliferative activity against human HepG2 cells assessed as reduction in cell growth incubated for 48 hrs by MTT assay; type: functional, cell-based; details: HepG2, 48 h
[13] = test system: A549; assay: Cytotoxicity against human A549 cells assessed as reduction in cell viability incubated for 72 hrs by MTT assay; type: functional, cell-based; details: A549, 72 h
[14] = test system: SK-OV-3; assay: Antiproliferative activity against human SK-OV-3 cells assessed as reduction in cell growth incubated for 48 hrs by MTT assay; type: functional, cell-based; details: SK-OV-3, 48 h
[15] = test system: MCF7; assay: Antiproliferative activity against human MCF7 cells assessed as reduction in cell growth incubated for 48 hrs by MTT assay; type: functional, cell-based; details: MCF7, 48 h
[16] = test system: PC-3; assay: Cytotoxicity against human PC-3 cells assessed as reduction in cell viability incubated for 72 hrs by MTT assay; type: functional, cell-based; details: PC-3, 72 h
[17] = test system: MCF7; assay: Cytotoxicity against human MCF7 cells assessed as reduction in cell viability incubated for 72 hrs by MTT assay; type: functional, cell-based; details: MCF7, 72 h
[18] = test system: MGC-803; assay: Cytotoxicity against human MGC-803 cells assessed as reduction in cell viability incubated for 72 hrs by MTT assay; type: functional, cell-based; details: MGC-803, 72 h
[19] = test system: HeLa; assay: Antiproliferative activity against human HeLa cells assessed as reduction in cell growth incubated for 48 hrs by MTT assay; type: functional, cell-based

Structure (SMILES) | IC50 [1] [µM] | IC50 [2] [µM] | EC50 [3] [µM] | IC50 at 48 h [10] [µM] | IC50 [11] [µM] | further results
CCOC(=O)c1cc2c(nc1C)[C@@]1(C)CC[C@H]3[C@@H](CC=C4C[C@@H](OC(C)=O)CC[C@@]43C)[C@@H]1C2 | 34.7 | 12.2 | 16.1 | – | – | –
CC(=O)O[C@H]1CC[C@@]2(C)C(=CC[C@@H]3[C@@H]2CC[C@]2(C)c4nc(N)c(C#N)cc4C[C@@H]32)C1 | – | – | – | – | – | IC50 [4]: 20.5 µM; IC50 [5]: 16.3 µM; IC50 [6]: 58.4 µM
CC(=O)O[C@H]1CC[C@@]2(C)C(=CC[C@H]3[C@@H]4CC[C@H](c5cc(-c6ccccc6Cl)c(C#N)c(N)n5)[C@@]4(C)CC[C@@H]32)C1 | – | – | – | – | – | selectivity ratio [7]: 21.4; EC50 [8]: 14.1 µM; CC50 at 48 h [9]: 303 µM
CC(=O)O[C@H]1CC[C@@]2(C)C(=CC[C@@H]3[C@@H]2CC[C@]2(C)c4nc(C)c(C(C)=O)cc4C[C@@H]32)C1 | 30.6 | 10.3 | 14.3 | – | – | –
CCOC(=O)c1cc2c(nc1-c1ccccc1)[C@@]1(C)CC[C@H]3[C@@H](CC=C4C[C@@H](O)CC[C@@]43C)[C@@H]1C2 | – | – | – | 189 | 197 | –
CC(=O)O[C@H]1CC[C@@]2(C)C(=CC[C@H]3[C@@H]4CC[C@H](c5cc(-c6ccccc6F)c(C#N)c(N)n5)[C@@]4(C)CC[C@@H]32)C1 | – | – | – | – | – | selectivity ratio [7]: 23.2; EC50 [8]: 12.4 µM; CC50 at 48 h [9]: 288 µM
O=c1[nH]cc(F)c(=O)[nH]1 [FLUOROURACIL] | 2.45 | 26.4 | 21.1 | – | – | IC50 [12]: 66.8 µM; IC50 [13]: 5.7 µM; IC50 [14]: 25 µM; IC50 [15]: 25.4 µM; IC50 [16]: 6.7 µM; IC50 [17]: 10 µM; IC50 [18]: 15.7 µM; IC50 [19]: 18.8 µM
NC(=O)c1ncn([C@@H]2O[C@H](CO)[C@@H](O)[C@H]2O)n1 [RIBAVIRIN] | – | – | – | – | – | selectivity ratio [7]: 32.5; EC50 [8]: 20.1 µM; CC50 at 48 h [9]: 653 µM
CCOC(=O)c1cc2c(nc1-c1ccccc1)[C@@]1(C)CC[C@H]3[C@@H](CC=C4C[C@@H](OC(C)=O)CC[C@@]43C)[C@@H]1C2 | – | – | – | 375 | 437 | –
C[C@]12CC[C@H](O)CC1=CC[C@@H]1[C@@H]2CC[C@]2(C)C(c3cccnc3)=CC[C@@H]12 [ABIRATERONE] | – | – | – | 645 | 91 | IC50 [16]: 17.2 µM
CCOC(=O)c1cc2c(nc1C(=O)OCC)[C@@]1(C)CC[C@H]3[C@@H](CC=C4C[C@@H](O)CC[C@@]43C)[C@@H]1C2 | – | – | – | 501 | 95.4 | –
CC(=O)O[C@H]1CC[C@@]2(C)C(=CC[C@H]3[C@@H]4CC[C@H](c5cc(-c6ccnc(Br)c6)c(C#N)c(N)n5)[C@@]4(C)CC[C@@H]32)C1 | – | – | – | – | – | selectivity ratio [7]: 172; EC50 [8]: 3.13 µM; CC50 at 48 h [9]: 539 µM
CCOC(=O)c1cc2c(nc1CCl)[C@@]1(C)CC[C@H]3[C@@H](CC=C4C[C@@H](OC(C)=O)CC[C@@]43C)[C@@H]1C2 | 37.6 | 9.84 | 15.5 | – | – | –
COC(=O)c1cc2c(nc1C)[C@@]1(C)CC[C@H]3[C@@H](CC=C4C[C@@H](OC(C)=O)CC[C@@]43C)[C@@H]1C2 | 26.5 | 16.7 | 17.1 | – | – | –
CCOC(=O)c1cc2c(nc1C(=O)OCC)[C@@]1(C)CC[C@H]3[C@@H](CC=C4C[C@@H](OC(C)=O)CC[C@@]43C)[C@@H]1C2 | – | – | – | 218 | 100 | –
